Test results: patent US7498347B2, “Hydroxycarbonylphenyl substituted 4-(aminomethyl)-piperidine benzamides as 5HT4 antagonists” (Janssen Pharmaceutica, N.V., priority 2004, dated 2009)
Where a name gives a salt, the structure may show the parent alone.

Legend:
h5-HT4b = biological target: T1, h5-HT4b (Homo sapiens, UniProt Q13639); test: 5HT4 antagonism: [3H]GR113808 binding to membranes of h5-HT4b-HEK 293 clone 9 cells; settings: displacement of [3H]GR113808 0.1 nM, h5-HT4b-HEK 293 membranes, 30 min at 25° C.; read-out: pIC50 (5HT4 antagonistic data) (converted)
T1 construct: expressed in transfected cells; host or cells: HEK 293 (clone 9), membrane preparation
T1 sequence (Q13639 whole entry): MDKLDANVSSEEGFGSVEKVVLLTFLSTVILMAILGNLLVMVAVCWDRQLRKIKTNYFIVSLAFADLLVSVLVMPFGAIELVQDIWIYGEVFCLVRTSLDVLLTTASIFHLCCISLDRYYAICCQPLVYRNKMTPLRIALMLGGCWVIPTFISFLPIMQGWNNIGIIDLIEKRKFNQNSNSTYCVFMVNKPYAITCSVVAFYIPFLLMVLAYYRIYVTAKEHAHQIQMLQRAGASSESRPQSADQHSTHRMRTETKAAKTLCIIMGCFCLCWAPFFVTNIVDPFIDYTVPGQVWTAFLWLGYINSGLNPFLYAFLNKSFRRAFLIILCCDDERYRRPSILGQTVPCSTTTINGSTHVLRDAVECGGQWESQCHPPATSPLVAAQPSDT
Procedure: h5-HT4b-HEK 293 clone 9 cells were cultured in 150 mm Petri dishes and washed twice with cold PBS. The cells were then scraped from the plates and suspended in 50 mM Tris-HCl buffer, pH 7.4 and harvested by centrifugation at 23,500 rpm for 10 minutes. The pellet was resuspended in 5 mM Tris-HCl, pH 7.4 and homogenized with an Ultra Turrax homogenizer. The membranes were collected by centrifugation at 30,000 rpm for 20 min, resuspended in 50 mM Tris-HCl pH 7.4 and stored at −80° C. For the experiment, assay mixtures (0.5 ml) contained 50 μl of the tritiated ligand (5-HT4 antagonist [^3H]GR113808 0.1 nM) and 0.4 ml membrane preparation (15 μg protein/ml). 50 μl of 10% DMSO was added for total binding. 50 μl of 1 μM of (+)-trans-(1-butyl-3-hydroxy-4-piperidinyl)methyl 8-amino-7-chloro-2,3-dihydro-1,4-benzodioxin-5-carboxylate (a proprietary 5HT4 agonist of Janssen Pharmaceutica) was added for determination of non-specific binding.
The [^3H]GR113808 assay buffer was 50 mM HEPES-NaOH, pH 7.4. The mixtures were incubated for 30 min at 25° C. The incubation was terminated by filtration over a Unifilter 96 GF/B presoaked in 0.1% polyethylenimine, followed by six washing steps with 50 mM HEPES-NaOH, pH 7.4.

[1] = Metabolic stability in liver microsomes, LC-MS analysis; type: in vitro ADME; settings: compound 5 μM, microsomes 1 mg/ml, NADPH-generating system, 60 minutes at 37 degrees Celsius
Procedure: Sub-cellular tissue preparations were made according to Gorrod et al. (Xenobiotica 5: 453-462, 1975) by centrifugal separation after mechanical homogenization of tissue. Liver tissue was rinsed in ice-cold 0.1 M Tris-HCl (pH 7.4) buffer to wash excess blood. Tissue was then blotted dry, weighed and chopped coarsely using surgical scissors. The tissue pieces were homogenized in 3 volumes of ice-cold 0.1 M phosphate buffer (pH 7.4).
Tissue homogenates were centrifuged at 9000×g for 20 minutes at 4° C. The resulting supernatant was stored at −80° C. and is designated ‘S9’.
The S9 fraction can be further centrifuged at 100.000×g for 60 minutes (4° C.). The resulting supernatant was carefully aspirated, aliquoted and designated ‘cytosol’. The pellet was re-suspended in 0.1 M phosphate buffer (pH 7.4) in a final volume of 1 ml per 0.5 g original tissue weight and designated ‘microsomes’.
All sub-cellular fractions were aliquoted, immediately frozen in liquid nitrogen and stored at −80° C. until use.
For the samples to be tested, the incubation mixture contained PBS (0.1M), compound (5 μM), microsomes (1 mg/ml) and a NADPH-generating system (0.8 mM glucose-6-phosphate, 0.8 mM magnesium chloride and 0.8 Units of glucose-6-phosphate dehydrogenase). Control samples contained the same material but the microsomes were replaced by heat inactivated (10 minutes at 95 degrees Celsius) microsomes. Recovery of the compounds in the control samples was always 100%.
The mixtures were preincubated for 5 minutes at 37 degrees Celsius. The reaction was started at time point zero (t=0) by addition of 0.8 mM NADP and the samples were incubated for 60 minutes (t=60). The reaction was terminated by the addition of 2 volumes of DMSO. Then the samples were centrifuged for 10 minutes at 900×g and the supernatants were stored at room temperature for no longer as 24 hours before analysis. All incubations were performed in duplo. Analysis of the supernatants was performed with LC-MS analysis. Elution of the samples was performed on a Xterra MS C18 (50×4.6 mm, 5 μm, Waters, US). An Alliance 2790 (Supplier: Waters, US) HPLC system was used. Elution was with buffer A (25 mM ammoniumacetate (pH 5.2) in H2O/acetonitrile (95/5)), solvent B being acetonitrile and solvent C methanol at a flow rate of 2.4 ml/min. The gradient employed was increasing the organic phase concentration from 0% over 50% B and 50% C in 5 min up to 100% B in 1 minute in a linear fashion and organic phase concentration was kept stationary for an additional 1.5 minutes. Total injection volume of the samples was 25 μl.
A Quatro triple quadrupole mass spectrometer fitted with and ESP source was used as detector. The source and the desolvation temperature were set at 120 and 350° C. respectively and nitrogen was used as nebuliser and drying gas. Data were acquired in positive scan mode (single ion reaction). Cone voltage was set at 10 V and the dwell time was 1 second.
Metabolic stability was expressed as % metabolism of the compound after 60 minutes (equation given as example) of incubation in the presence of active microsomes (E(act))

| SMILES | IC50 (h5-HT4b) [nM] | % metabolized (% metabolised compound after 60 minutes) [1] [%] | melting point [°C] |
| --- | --- | --- | --- |
| COC1CN(CCCOc2ccc(C(=O)O)cc2)CCC1CNC(=O)c1cc(C)cc2c1OCCCO2 (stereo not shown) [compound 22] | 13.5 | 6 |  |
| Cc1cc2c(c(C(=O)NC[C@@H]3CCN(CCCCOc4ccc(C(=O)O)cc4)C[C@H]3O)c1)OCCCO2 [compound 2] | 9.55 | 6 | 188 |
| COc1ccc(C(=O)NCC2CCN(CCCOc3ccc(C(=O)O)cc3)CC2OC)c2c1OCCCO2 (stereo not shown) [compound 21] | 66.1 |  | 179.4 to 189.2 |
| Cc1cc2c(c(C(=O)NC[C@@H]3CCN(CCOc4ccc(C(=O)O)cc4)C[C@H]3O)c1)OCCCO2 [compound 6] | 63.1 |  | 175 |
| Cc1cc2c(c(C(=O)NC[C@@H]3CCN(CCCOc4ccccc4C(=O)O)C[C@H]3O)c1)OCCCO2 [compound 1] | 120 |  |  |
| Cc1cc2c(c(C(=O)NCC3CCN(CCCOc4cccc(C(=O)O)c4)CC3O)c1)OCCCO2 (stereo not shown) [compound 12] | 23.4 | 0 | 122 |
| Cc1ccc(C(=O)NC[C@@H]2CCN(CCCOc3cccc(C(=O)O)c3)C[C@H]2O)c2c1OCCCO2 [compound 11] | 8.51 | 1 | 120 |
| O=C(O)c1ccccc1OCCCN1CC[C@@H](CNC(=O)c2cc(Cl)cc3c2OCCCO3)[C@H](O)C1 (relative stereo) [compound 7] | 79.4 | 14 | 148 |
| Cc1cc2c(c(C(=O)NC[C@@H]3CCN(CCCOc4ccccc4C(=O)O)C[C@H]3O)c1)OCCCO2 [Co. No. 1] |  |  | 114 |

The remaining lines, values ahead:

| IC50 (h5-HT4b) [nM] | % metabolized (% metabolised compound after 60 minutes) [1] [%] | melting point [°C] | SMILES |
| --- | --- | --- | --- |
| 14.5 |  | 220 to 225 | O=C(O)c1ccc(OCCN2CC[C@@H](CNC(=O)c3cc(Cl)cc4c3OCCCO4)[C@H](O)C2)cc1 [compound 4] |
| 42.7 |  |  | Cc1ccc(C(=O)NC[C@@H]2CCN(CCOc3ccc(C(=O)O)cc3)C[C@H]2O)c2c1OCCCO2 [compound 8] |
| 4.9 | 16 | 170 | Cc1ccc(C(=O)NC[C@@H]2CCN(CCCCOc3ccc(C(=O)O)cc3)C[C@H]2O)c2c1OCCCO2 [compound 3] |
| 7.76 |  | 200 | CO[C@@H]1CN(CCCOc2ccc(C(=O)O)cc2)CC[C@H]1CNC(=O)c1cc(Cl)c(Cl)c2c1OCCCO2 (relative stereo) [compound 20] |
| 11.2 | 7.5 | 122 | O=C(O)c1ccc(OCCCN2CCC(CNC(=O)c3cc(Cl)cc4c3OCCCO4)C(O)C2)cc1 (stereo not shown) [compound 9] |
|  |  | 256 | O=C(O)c1ccc(OCCCN2CCC(CNC(=O)c3cc(Cl)c(Cl)c4c3OCCCO4)C(O)C2)cc1 (stereo not shown) (as salt: HCl) [compound 16] |
| 8.71 | 0 | 155 | Cc1ccc(C(=O)NC[C@@H]2CCN(CCCOc3ccc(C(=O)O)cc3)C[C@H]2O)c2c1OCCCO2 [compound 14] |
| 20.9 |  | 118 | Cc1cc2c(c(C(=O)NC[C@@H]3CCN(CCCOc4ccc(C(=O)O)cc4)C[C@H]3O)c1)OCCCO2 (relative stereo) [compound 13] |
|  |  | 268 | O=C(O)c1ccc(OCCCN2CC[C@@H](CNC(=O)c3cc(Cl)c(Br)c4c3OCCCO4)[C@H](O)C2)cc1 (relative stereo) (as salt: HCl) (hydrate or solvate) [compound 17] |
|  |  | > 120 | Cc1ccc(C(=O)NC[C@@H]2CCN(CCOc3ccc(C(=O)O)cc3)C[C@H]2O)c2c1OCCCO2 (hydrate or solvate) [compound 8] |
| 5.62 | 6 |  | O=C(O)c1ccc(OCCCN2CC[C@@H](CNC(=O)c3cc(Cl)c(Br)c4c3OCCCO4)[C@H](O)C2)cc1 (relative stereo) [compound 17] |
| 5.13 | 15 | 190 | O=C(O)c1ccc(OCCCCN2CC[C@@H](CNC(=O)c3cc(Cl)cc4c3OCCCO4)[C@H](O)C2)cc1 [compound 5] |
| 7.59 | 3 |  | O=C(O)c1ccc(OCCCN2CCC(CNC(=O)c3cc(Cl)c(Cl)c4c3OCCCO4)C(O)C2)cc1 (stereo not shown) [compound 16] |
